# Source: ChEMBL document CHEMBL1143132, “Synthesis and protective effects of coumarin derivatives against oxidative stress induced by doxorubicin” (2008)
# Calls of active or inactive are those of the source. The rule behind the calls is not given here.
# Experiments:
# MCF7 [1] = assay: Antioxidant activity in human MCF7 cells assessed as reduction of H2O2 production at 100 uM; format: functional, cell-based
# MCF7 [2] = assay: Protective effect against doxorubicin-induced oxidative stress in human MCF7 cells assessed as reduction of ROS level at 25 uM; format: functional, cell-based
# MCF7 [3] = assay: Cytotoxicity against human MCF7 cells at 100 uM; format: functional
Compound,Activity (MCF7 [1]),Activity (MCF7 [2]),Activity (MCF7 [3]) [%]
Cc1c(Cl)c(=O)oc2c(O)c(O)ccc12,Active,–,–
Cc1cc(=O)oc2c(O)c(O)ccc12,Active,Active,–
CCCCCCCCCCCCSCc1cc(=O)oc2c(OC(C)=O)c(OC(C)=O)ccc12,Active,–,70
